Consider four compounds from patent publication US5116863A, “Dibenz[b,e]oxepin derivative and pharmaceutical compositions thereof” (Kyowa Hakko Kogyo Co., Ltd., priority 1986, dated 1992).

A value given as a limit tells only on which side of the number the result lay.

The subject of data set [1] is dd, male mice. It is filed as in vivo. Particulars: mice, mortality 7 days after administration. The procedure:
Groups each consisting of 3 dd, male mice having body weights of 20±1 g were used, and the compound of the present invention was administered orally (po: 300 mg/kg) or intraperitoneally (ip: 100 mg/kg).

Data set [2] concerns Rat carageenin paw edema. Briefly: Carageenin paw edema test (antiinflammatory activity). It is filed as in vivo, Wistar male rats. Particulars: average value in one group of 3 rats, 100 mg/kg oral administration. The procedure:
Antiinflammatory activity was examined according to Rat carageenin paw edema [J. Pathol. 104, 15-29 (1971)], Groups each consisting of three Wistar male rats weighing 150 g were used. The test compound was suspended in 0.3% aqueous CMC solution and the suspension was given orally. Sixty minutes later, 0.1 ml of 0.1% carageenin was subcutaneously injected in a hind paw to form carageenin paw edema.
The volume of paw was measured before the administration and 3 hours after the administration of carageenin with plethysmometer.
The ratio of the volume 3 hours after the administration to that before the administration of carageenin was calculated and each ratio is compared with the ratio of control group (0.3% CMC was administered) to give the edema inhibiting percentage.

In data set [3] the test system is homologous PCA (passive cutaneous anaphlaxis) of rats. Kind of data set: Homologous PCA (passive cutaneous anaphylaxis) test of rats for 48 hours, oral (antiallergic activity). Type of data set: in vivo, Wistar male rats. Particulars: Rattus norvegicus; for minimal effective dose: minimum dosage with positive case in at least one of three rats, read-out: MED (minimum effective dosage), PCA inhibition; for responders at 1 mg/kg / responders at 10 mg/kg / responders at 100 mg/kg / responders at 0.1 mg/kg: po, positive = inhibition rate 50% or higher, read-out: Number of positive zooids in one group of 3 zooids (converted); for responders at 1 mg/kg: dosage 1 mg/kg; for responders at 10 mg/kg: dosage 10 mg/kg; for responders at 100 mg/kg: dosage 100 mg/kg; for responders at 0.1 mg/kg: dosage 0.1 mg/kg.

`CN(C)CCN=C1c2ccccc2COc2ccc(CC(=O)O)cc21` [Compound 37, 11-(2-Dimethylaminoethyl)imino-6,11-dihydrodibenz[b,e]oxepin-2-acetic acid]: in data set [1], the “Acute toxicity (MLD), ip” value is over 100 mg/kg and the “Acute toxicity (MLD), po” value is on record as over 300 mg/kg. Besides, in data set [2], the “Carageenin paw edema inhibiting percentage” value is 51.6%. Moreover, in data set [3], the minimal effective dose amounted to 10 mg/kg, the responders at 1 mg/kg was 0%, the responders at 10 mg/kg was 100% and the responders at 100 mg/kg was 100%.
On to `CN(C)CCCN=C1c2ccccc2COc2ccc(CC(=O)O)cc21` [Compound 41, 11-(3-Dimethylaminopropyl)imino-6,11-dihydrodibenz[b,e]oxepin-2-acetic acid], for which, in data set [1], the “Acute toxicity (MLD), ip” value was over 100 mg/kg and the “Acute toxicity (MLD), po” value is reported as over 300 mg/kg. The “Carageenin paw edema inhibiting percentage” value in data set [2] is on record as 38.7%. In data set [3], the minimal effective dose was determined as 1 mg/kg, the responders at 0.1 mg/kg is 0%, the responders at 1 mg/kg is 33.3% and the responders at 10 mg/kg is 66.7%. Also, the responders at 100 mg/kg in data set [3] is 100%.
As to `CCN(CC)CCN=C1c2ccccc2COc2ccc(CC(=O)O)cc21` [Compound 39, 11-(2-Diethylaminoethyl)imino-6,11-dihydrodibenz[b,e]oxepin-2-acetic acid], in data set [1], the “Acute toxicity (MLD), ip” value is reported as over 100 mg/kg and the “Acute toxicity (MLD), po” value was over 300 mg/kg. In data set [2], the “Carageenin paw edema inhibiting percentage” value turned out to be 50.2%. Further, in data set [3], the minimal effective dose is 1 mg/kg, the responders at 0.1 mg/kg was 0%, the responders at 1 mg/kg was 100% and the responders at 10 mg/kg is 66.7%. In addition, the responders at 100 mg/kg in data set [3] is 100%.
Regarding `CC(C(=O)O)c1ccc2c(c1)C(=NCCN(C)C)c1ccccc1CO2` (stereo not shown) [Compound 45, 2-[11-(2-Dimethylaminoethyl)imino-6,11-dihydrodibenz[b,e]oxepin-2-yl]-propionic acid], in data set [1], the “Acute toxicity (MLD), ip” value is over 100 mg/kg and the “Acute toxicity (MLD), po” value is recorded as over 300 mg/kg. In data set [2], the “Carageenin paw edema inhibiting percentage” value is recorded as 63.1%. For the same compound, in data set [3], the minimal effective dose turned out to be 1 mg/kg, the responders at 0.1 mg/kg is 0%, the responders at 1 mg/kg was 66.7% and the responders at 10 mg/kg was 100%. In addition, the responders at 100 mg/kg in data set [3] is 100%.
